According to PMC4199771, “Novel Cyclic di-GMP Effectors of the YajQ Protein Family Control Bacterial Virulence” (PLoS Pathogens, 2014):

Key:
XC_3703 [1] = target: T1, XC_3703 (Xanthomonas campestris, UniProt Q4UQD0); assay: isothermal titration calorimetry; assay type: binding
T1 construct: full-length, synthesized gene in pET47b, E. coli BL21(DE3), N-terminal His6 tag cut by 3C protease

Clocel_3875 = target: T2, Clocel_3875 (Clostridium cellulovorans, UniProt D9SKW9); assay: biochemical; set-up: isothermal titration calorimetry of nucleotide binding to purified recombinant YajQ family protein
T2 construct: recombinant, N-terminal His6 tag cleaved with 3C protease
Method: (§1) The ability of XC_3703 to bind different nucleotides including cyclic di-GMP was further examined using isothermal titration calorimetry (ITC) with the purified protein (see Materials and Methods ). The full-length XC_3703 protein bound cyclic di-GMP with high affinity with a K d of 2 µM (Figure 1B; Table S2). It appeared that binding was endothermic in nature, which is a characteristic of a binding mechanism that favours hydrogen bonding and hydrophobic interactions, [16]. […] The observed binding affinity is within the range of physiological cyclic di-GMP levels observed in Xcc and is similar to the binding affinity of a number of established cyclic di-GMP effector proteins. […] To examine whether cyclic di-GMP binding was a common feature of this family, recombinant YajQ-like proteins from various bacteria including Escherichia coli, Pseudomonas aeruginosa, Stenotrophomonas maltophilia, Bacillus cereus and Clostridium species were purified and their ability to bind different nucleotides was assessed. […] The DNA fragments encoding the proteins of interest were synthesized by Gene Oracle in pGOv4 and sub-cloned into pET47b or pLAFR3 before transformation into E. coli BL21 (DE3). Genomic regions are described in Table S7. BL21 (DE3) cells were grown in LB media and induced with 0.25 mM IPTG; protein overexpression was carried out at 37°C for 1 h. Purification was achieved by Ni^2+ affinity chromatography using the N-terminal His6 tag followed by tag cleavage using recombinant 3C protease.

YajQ = target: T3, YajQ (Escherichia coli, UniProt P0A8E7); assay: biochemical; set-up: isothermal titration calorimetry of nucleotide binding to purified recombinant YajQ family protein
T3 construct: recombinant, N-terminal His6 tag cleaved with 3C protease
Method: as §1

Smlt4090 = target: T4, Smlt4090 (Stenotrophomonas maltophilia, UniProt B2FHW7); assay: isothermal titration calorimetry; assay type: binding
T4 construct: recombinant, synthesized gene in pET47b, E. coli BL21(DE3), N-terminal His6 tag cut by 3C protease
Excerpt: isothermal titration calorimetry on Smlt4090 | YajQ family proteins from P. aeruginosa (PA4395) and S. maltophilia (Smlt4090)

PA4395 = target: T5, PA4395 (Pseudomonas aeruginosa, UniProt Q9HW11); assay: isothermal titration calorimetry; assay type: binding
T5 construct: recombinant, synthesized gene in pET47b, E. coli BL21(DE3), N-terminal His6 tag cut by 3C protease; locus tag is of strain PAO1 (PA14 used in mice)
Excerpt: isothermal titration calorimetry on PA4395 | affinity for cyclic di-GMP binding was only seen in YajQ family proteins from P. aeruginosa (PA4395)

XC_3703 [2] = target: T1, XC_3703; assay: biochemical; set-up: isothermal titration calorimetry of nucleotide binding to purified recombinant YajQ family protein
Method: as §1

[3] = target: T6, XC_3703 (YajQ family) (Xanthomonas campestris pv. campestris 8004) (UniProt Q4UQD0); assay: EMSA
T6 sequence: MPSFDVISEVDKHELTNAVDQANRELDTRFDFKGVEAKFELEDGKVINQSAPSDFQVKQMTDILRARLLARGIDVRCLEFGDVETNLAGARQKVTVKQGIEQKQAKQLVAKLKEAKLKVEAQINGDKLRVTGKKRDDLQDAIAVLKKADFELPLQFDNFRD

T2 sequence (D9SKW9 entry or part of it): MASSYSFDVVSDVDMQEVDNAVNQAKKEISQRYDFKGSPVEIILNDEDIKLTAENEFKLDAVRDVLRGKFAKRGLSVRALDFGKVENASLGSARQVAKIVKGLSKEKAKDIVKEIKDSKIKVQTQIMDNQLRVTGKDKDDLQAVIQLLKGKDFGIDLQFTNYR
T3 sequence (P0A8E7 whole entry): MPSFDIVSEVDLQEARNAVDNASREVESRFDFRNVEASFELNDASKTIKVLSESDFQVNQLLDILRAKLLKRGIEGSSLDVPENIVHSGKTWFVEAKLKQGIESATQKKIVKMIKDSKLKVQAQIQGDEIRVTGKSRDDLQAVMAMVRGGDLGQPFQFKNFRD
T4 sequence (B2FHW7 whole entry): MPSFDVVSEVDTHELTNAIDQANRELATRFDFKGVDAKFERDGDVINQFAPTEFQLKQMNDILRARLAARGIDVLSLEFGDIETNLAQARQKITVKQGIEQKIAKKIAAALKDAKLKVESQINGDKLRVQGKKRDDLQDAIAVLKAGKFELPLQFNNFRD
T5 sequence (Q9HW11 whole entry): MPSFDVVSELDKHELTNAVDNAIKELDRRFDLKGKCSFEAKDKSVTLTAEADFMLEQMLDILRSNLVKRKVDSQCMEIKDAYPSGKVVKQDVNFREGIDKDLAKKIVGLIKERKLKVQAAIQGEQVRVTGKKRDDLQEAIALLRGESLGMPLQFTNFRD

What does the source list for `Nc1ncnc2c1ncn2[C@@H]1O[C@H](COP(=O)(O)OP(=O)(O)OP(=O)(O)O)[C@@H](O)[C@H]1O` [ATP]?
Kd (XC_3703 [1]; read-out: Kd): 3000 µM; Kd (Clocel_3875): 21.1 µM; Kd (YajQ): 28.2 µM

Which Kd (XC_3703 [1]; read-out: Kd) does the source give for `Nc1nc2c(ncn2[C@@H]2O[C@H](COP(=O)(O)OP(=O)(O)OP(=O)(O)O)[C@@H](O)[C@H]2O)c(=O)[nH]1` [GTP] here?
Its Kd is 13000 µM.

And the Kd (Clocel_3875)?
The Kd was 31 µM.

And the Kd (YajQ)?
Its Kd is 34.3 µM.

How did the Kd (XC_3703 [1]) turn out when `Nc1ncnc2c1ncn2[C@@H]1O[C@@H]2COP(=O)(O)O[C@H]3[C@@H](O)[C@H](n4cnc5c(N)ncnc54)O[C@@H]3COP(=O)(O)O[C@H]2[C@H]1O` [cyclic di-AMP] was run?
The Kd was 900 µM.

What does the source list for `Nc1nc2c(ncn2[C@@H]2O[C@@H]3CO[P@](=O)(O)O[C@H]4[C@@H](O)[C@H](n5cnc6c(=O)[nH]c(N)nc65)O[C@@H]4CO[P@](=O)(O)O[C@H]3[C@H]2O)c(=O)[nH]1` [cyclic di-GMP]?
Kd (Smlt4090): 7.91 µM; Kd (PA4395): 6.98 µM; Kd (XC_3703 [1]): 2 µM; Kd (XC_3703 [2]): 2.2 µM

How did the binding [3] turn out when “GGCATCGAACCGGCCGCACGTTTCGCGGCTGTTGTGCAGTGAATACGTATGCACAGGGTCAATGCTGCGCCGCGATGCGCGCTTAGCATCACCGCGCGCCGCACGCCGTGGGGCGCGCTTTCCGGAACAGGGGCCGGAGGGCATTGCTGCATGCATCGCTGTGCGGGATGCGTGCGTCCACTGATCAGGAGACACACCCG (double strand) [aaeB promoter probe]” was run?
Its binding is “no binding”.
